Test [1] addresses T1, Palmitoleoyl-protein carboxylesterase NOTUM (Homo sapiens, UniProt Q6P988, C330S). The experiment in a line: Inhibition of human Notum (81 to 451 Cys330Ser) using OPTS as substrate incubated for 40 mins by fluorescence based assay.
The target of test [2] is T1, Palmitoleoyl-protein carboxylesterase NOTUM. Kind of test: Inhibition of Notum (81 to 451 Cys330Ser) in HEK293T cells expressing TCF-LEF assessed as activation of Wnt signaling using WNT3A as substrate incubated for […] by Steady-Glo luciferase assay. The format is cell-based.

The structures appear in SMILES notation.

A word on the IC50: it is the concentration needed to halve the response being measured. Read a low IC50 as inhibition by little substance. `O=C1OC(c2ccc(Cl)cc2Cl)=N/C1=C/c1ccco1` yielded an IC50 in test [1] of 0.048 µM.

Compound `Cc1ccc(S(=O)(=O)c2ccc3n[nH]c(=O)n3n2)cc1` had an IC50 in test [1] of more than 10 µM.

One may read the EC50 as the concentration that produces a half-maximal response. In turn, `COc1cccc(Sc2ccc3n[nH]c(=O)n3n2)c1` showed an IC50 in test [1] of 0.015 µM. For the same compound, in test [2], the EC50 was found to be 0.14 µM.

Take `Cc1ccc(Sc2ccc3nn(C)c(=O)n3n2)cc1`: the IC50 in test [1] was more than 10 µM.

In test [1], `Cc1ccc(C2=N/C(=C/c3ccccc3)C(=O)O2)cc1C` came in with an IC50 of 0.2 µM.

As for `O=c1[nH]nc2ccc(Sc3cccc(Cl)c3Cl)nn12`, the IC50 in test [1] turned out to be 0.013 µM. In test [2], the EC50 amounted to 0.15 µM.

As for `Cc1ccc(Nc2ccc3n[nH]c(=O)n3n2)cc1`, half-maximal inhibition in test [1] (IC50) required 0.69 µM.

As for `O=c1[nH]nc2ccc(Sc3ncccn3)nn12`, the IC50 in test [1] was more than 10 µM.

The compound `O=c1[nH]nc2ccc(Sc3ccc(F)cc3)nn12` gave an IC50 in test [1] of 0.094 µM. Also, in test [2], the EC50 came to 0.54 µM.

Turning to `O=c1[nH]nc2ccc(Sc3ccc(Cl)cc3Cl)nn12`, half-maximal inhibition in test [1] (IC50) was put at 0.02 µM. Moreover, the 50% effective concentration (EC50) in test [2] came out at 0.38 µM.

In test [1], `Cc1ccc(/C=C2/N=C(c3ccc(C)c(C)c3)OC2=O)o1` came in with an IC50 of 0.0085 µM.

On to `O=c1[nH]nc2ccc(Sc3cccc(C(F)(F)F)c3)nn12`, for which it took 0.017 µM to reach half-maximal inhibition in test [1] (IC50). For the same compound, the concentration for a half-maximal effect (EC50) in test [2] stood at 0.19 µM.

Regarding `O=c1[nH]nc2ccc(Sc3cccc(F)c3F)nn12`, the IC50 in test [1] was determined as 0.063 µM.

The compound `Cc1ccc([S+]([O-])c2ccc3n[nH]c(=O)n3n2)cc1` (configuration not stated) showed an IC50 in test [1] of more than 10 µM.

Compound `O=C1OC(c2cccc(Cl)c2Cl)=N/C1=C/c1cccs1` registered an IC50 in test [1] of 0.054 µM.

On to `CC(C)Oc1cccc(Sc2ccc3n[nH]c(=O)n3n2)c1`, for which, in test [1], inhibition was half-maximal at 0.025 µM (IC50). In addition, the EC50 in test [2] came out at 0.26 µM.

On to `CSc1cccc(Sc2ccc3n[nH]c(=O)n3n2)c1`, for which the IC50 in test [1] is 0.024 µM. For the same compound, in test [2], the EC50 stood at 0.38 µM.

In test [1], `Cc1cccc(Sc2ccc3n[nH]c(=O)n3n2)c1C` displayed an IC50 of 0.014 µM.

In test [1], `Cc1ccnc(Sc2ccc3n[nH]c(=O)n3n2)c1` registered an IC50 of 2.7 µM.

In the case of `Cc1ccc(Sc2nn3c(=O)[nH]nc3c(C)c2C)cc1`, the IC50 in test [1] was more than 10 µM.

In test [1], `Cc1ccc(C2=N/C(=C/c3cccs3)C(=O)O2)cc1C` displayed an IC50 of 0.024 µM.

On to `CCOc1cccc(Sc2ccc3n[nH]c(=O)n3n2)c1`, for which the IC50 in test [1] was 0.02 µM. Besides, the EC50 in test [2] turned out to be 0.15 µM.

On to `Cc1ccc(Sc2ccc3n[nH]c(=O)n3n2)c(C)c1`, for which, in test [1], the IC50 turned out to be 0.027 µM. Besides, the EC50 in test [2] stood at 0.3 µM.

As for `Cc1ccc(Cc2ccc3n[nH]c(=O)n3n2)cc1`, the IC50 in test [1] was 0.24 µM.

In test [1], `O=C1OC(c2ccc(Cl)cc2Cl)=N/C1=C\c1ccco1` yielded an IC50 of 0.014 µM.

In test [1], `Cc1ccc(N(C)c2ccc3n[nH]c(=O)n3n2)cc1` displayed an IC50 of 0.99 µM.

`Cc1ccc(Sc2cc(C)c3n[nH]c(=O)n3n2)cc1` returned an IC50 in test [1] of 0.07 µM.

Compound `O=c1[nH]nc2ccc(Sc3ccncn3)nn12` had an IC50 in test [1] of more than 10 µM.
